Measurements taken from US20040044177A1, “Peptide compounds having improved binding affinity to somatostatin receptors” (priority 2002, published 2004).
pIC50: −log10 of the molar value. Bridge positions count the residues as written; N and C are the ends. Square brackets hold non-standard residues; d marks the D form. Peptide text beside a SMILES is read from it. * marks the point of attachment. DOTA = O=C(O)CN1CCN(CC(=O)O)CCN(CC(=O)*)CCN(CC(=O)O)CC1; 1Nal = N[C@@H](Cc1cccc2ccccc12)C(=O)O; Bta = N[C@@H](Cc1csc2ccccc12)C(=O)O; Thr(ol) = C[C@@H](O)[C@H](N)CO

Key:
[1] = target: human somatostatin receptor subtype hsst5 (Homo sapiens, UniProt P35346); assay: In vitro binding affinity of peptide analogs (Table III), hsst5; conditions: DOTA complexed with stable Y or In
Description: (§1) IC50 values were determined as described by Reubi et al. (Eur J Nuc Med 28:836-846, 2001).

[2] = target: T1, human somatostatin receptor subtype hsst3 (Homo sapiens, UniProt P32745); assay: In vitro binding affinity of peptide analogs (Table III), hsst3; conditions: DOTA complexed with stable Y or In
Description: Table III, presents the binding affinity of the new compounds to human somatostatin receptor subtypes as compared to the compound, Y-DOTA-TATE, described by Srinivasan et al. (U.S. Pat. No. 5,830,431).
as §1

[3] = target: T2, somatostatin human receptor subtype (hsst) 2 (Homo sapiens, UniProt P30874); assay: In vitro binding affinity, transfected cell lines, hsst 2; conditions: compared with compound 7 (Y-DOTA-TOC)
T2 construct: expressed in transfected cells

[4] = target: T1, human somatostatin receptor subtype hsst3; assay: In vitro binding affinity, transfected cell lines, hsst 3; design: expressed in transfected cells; conditions: compared with cpd. 6 (Y-DOTA-LAN)

T2 sequence (P30874 whole entry): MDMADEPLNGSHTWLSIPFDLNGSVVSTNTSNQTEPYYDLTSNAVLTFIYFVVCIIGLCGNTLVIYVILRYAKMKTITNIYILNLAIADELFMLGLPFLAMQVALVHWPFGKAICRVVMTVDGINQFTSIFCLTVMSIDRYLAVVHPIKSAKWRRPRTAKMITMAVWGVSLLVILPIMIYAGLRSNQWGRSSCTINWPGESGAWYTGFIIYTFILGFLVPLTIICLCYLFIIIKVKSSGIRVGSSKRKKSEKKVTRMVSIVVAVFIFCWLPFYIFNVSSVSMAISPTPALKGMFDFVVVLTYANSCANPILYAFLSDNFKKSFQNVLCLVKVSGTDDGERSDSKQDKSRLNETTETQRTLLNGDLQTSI
T1 sequence (P32745 whole entry): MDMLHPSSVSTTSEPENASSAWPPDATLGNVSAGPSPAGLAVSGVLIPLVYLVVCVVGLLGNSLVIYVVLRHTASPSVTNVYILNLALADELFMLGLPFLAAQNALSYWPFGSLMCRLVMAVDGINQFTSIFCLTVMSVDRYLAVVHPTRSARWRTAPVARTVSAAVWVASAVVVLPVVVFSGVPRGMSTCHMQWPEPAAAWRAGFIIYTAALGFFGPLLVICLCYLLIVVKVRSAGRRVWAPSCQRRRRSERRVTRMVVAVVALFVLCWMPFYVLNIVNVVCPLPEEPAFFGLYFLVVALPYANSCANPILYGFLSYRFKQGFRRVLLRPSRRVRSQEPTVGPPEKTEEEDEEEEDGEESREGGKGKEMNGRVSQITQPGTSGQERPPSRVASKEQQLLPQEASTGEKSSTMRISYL
human somatostatin receptor subtype hsst5, sequence (P35346 whole entry): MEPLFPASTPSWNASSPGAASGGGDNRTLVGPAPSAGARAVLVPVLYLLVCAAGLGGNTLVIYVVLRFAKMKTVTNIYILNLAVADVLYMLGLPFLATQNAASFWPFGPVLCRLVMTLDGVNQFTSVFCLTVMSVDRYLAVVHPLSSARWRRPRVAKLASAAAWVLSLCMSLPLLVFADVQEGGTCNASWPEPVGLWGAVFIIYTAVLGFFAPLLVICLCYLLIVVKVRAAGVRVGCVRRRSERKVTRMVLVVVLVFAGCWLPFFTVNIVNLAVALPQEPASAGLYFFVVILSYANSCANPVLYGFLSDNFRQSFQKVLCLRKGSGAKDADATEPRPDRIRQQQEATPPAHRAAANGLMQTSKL

Structure (SMILES): C[C@@H](O)[C@H](NC(=O)[C@@H]1CSSC[C@H](NC(=O)[C@@H](Cc2ccccc2)NC(=O)CN2CCN(CC(=O)O)CCN(CC(=O)O)CCN(CC(=O)O)CC2)C(=O)N[C@@H](Cc2ccc(O)c(I)c2)C(=O)N[C@H](Cc2c[nH]c3ccccc23)C(=O)N[C@@H](CCCCN)C(=O)N[C@@H]([C@@H](C)O)C(=O)N1)C(=O)O [compound 2]
- pIC50 [1]: 7.19
- pIC50 [2]: 6.77

Structure (SMILES): C[C@@H](O)[C@@H]1NC(=O)[C@H](CCCCN)NC(=O)[C@@H](Cc2c[nH]c3ccccc23)NC(=O)[C@H](Cc2csc3ccccc23)NC(=O)[C@@H](NC(=O)[C@@H](Cc2ccccc2)NC(=O)CN2CCN(CC(=O)O)CCN(CC(=O)O)CCN(CC(=O)O)CC2)CSSC[C@@H](C(=O)N[C@H](CO)[C@@H](C)O)NC1=O [cpd. 9, ^90Y-labelled DOTA-(D)Phe-cyclo[Cys-(D)3-benzothienylalanyl-(D)Trp-Lys-Thr-Cys]-Thr-ol, metal not drawn] ({DOTA}-[dF]C[Bta][dW]KTC[Thr(ol)]; disulfide 2-7)
- binding affinity to sst 2 relative to compound 7 [3]: approx. three times better

Structure (SMILES): C[C@@H](O)[C@@H]1NC(=O)[C@H](CCCCN)NC(=O)[C@@H](Cc2c[nH]c3ccccc23)NC(=O)[C@H](Cc2cccc3ccccc23)NC(=O)[C@@H](NC(=O)[C@@H](Cc2ccccc2)NC(=O)CN2CCN(CC(=O)O)CCN(CC(=O)O)CCN(CC(=O)O)CC2)CSSC[C@@H](C(=O)N[C@H](CO)[C@@H](C)O)NC1=O [cpd. 8, ^90Y-labelled DOTA-(D)Phe-cyclo[Cys-(D) 1-Nal-(D)Trp-Lys-Thr-Cys]-Thr-ol, metal not drawn] ({DOTA}-[dF]C[1Nal][dW]KTC[Thr(ol)]; disulfide 2-7)
- binding affinity to sst 2 relative to compound 7 [3]: approx. three times better
- affinity to sst 3 relative to cpd. 6 [4]: approx. five times better
